From article PMC7214591, “Biotransformation of 5-hydroxymethylfurfural into 2,5-dihydroxymethylfuran by Ganoderma sessile and toxicological assessment of both compounds” (AMB Express, 2020)

Assays:
[1] = Cytotoxicity test, CCK-8, 24 h; assay type: cell-based; conditions: human, HCT-8 cells
Procedure: (§1) Cell lines HCT-8 (3111C0001CCC000104) and A549 (3131C0001000700150) were obtained from National Infrastructure of Cell Line Resource (Beijing, China). SGC-7901 cell line was purchased from Suer Shengwu (Shanghai, China). All cells maintained in a humidified atmosphere at 37 °C and 5% CO2 in RPMI 1640 supplemented with 10% FBS and 1% Penicillin–Streptomycin solution. Cells were seeded in 96-well plates at a density of 8 * 10^3 cells per well and then incubated with various concentrations of 5-HMF and DHMF (Additional file 2: Table S2) for 24 h, respectively. Subsequently, culture supernatant was removed. HCT-8 cells were incubated in 100 μL fresh basal medium and 10 μL CCK-8 solution at 37 ℃ for 2 h. The optical density (OD) value of each well was measured at 450 nm using spectrophotometer (Multiskan Go 1510, Thermo, US); A549 and SGC-7901 cells were incubated in 100 μL MTT solution (1 mg/mL) at 37 ℃ for 4 h. Subsequently, the liquid was removed and dissolved the formazan with 150 μL DMSO, and the OD value was measured at 490 nm. Cell viability was given in a percentage of the control group. All data repeated for three times.

[2] = Cytotoxicity test, MTT, 24 h; assay type: cell-based; conditions: human
Procedure: as §1

[3] = test system: Female Sprague–Dawley rats; assay: Acute oral toxicity assessment (OECD 423)
Procedure: The temperature in the experimental animal room was 22 ± 1 °C and the relative humidity was 60% ± 5%, additionally, lighting conditions was 12-h light/dark cycle.
Twenty-four rats were randomly divided into five groups. Six rats were in the control group as well as the high-dose groups, and three rats were in the low-dose groups. Before the experiment, all rats needed to be […] overnight. Briefly, the control group received distilled water while experimental groups were orally treated with test compounds at a single dose of 300 mg/kg 5-HMF, 300 mg/kg DHMF, 2000 mg/kg 5-HMF, and 2000 mg/kg DHMF, respectively. The animals were monitored periodically during the first 24 h, especially the opening 30 min and 4 h, after drug oral treatment for any signs of toxicity. The rats were further observed for 14 days. Moreover, the body weight was measured at the first and last day. At the end of experiment, all rats were anaesthetized and their brains, hearts, lungs, livers, kidneys, and spleens were collected, weighed and observed macroscopically.

[4] = test system: mice; design: method as in Bauer Marinovic et al. [2012]; conditions: dose up to 536 mg/kg, drinking water for 12 weeks, ref Bauer Marinovic et al. [2012]; cited from earlier work
[5] = test system: human skin fibroblast cells; design: method as in Frade et al. [2014]; conditions: ref Frade et al. [2014]; cited from earlier work
[6] = rats, 300 mg/kg single oral dose, after 14 days, n = 3
[7] = rats, 2000 mg/kg single oral dose, after 14 days, n = 6

Molecule `OCc1ccc(CO)o1` [DHMF, 2,5-dihydroxymethylfuran] has an IC50 at 24 h [1] of 26.6 mM, an IC50 at 24 h ([2]; A549 cells) of 0.697 mM and an IC50 at 24 h ([2]; SGC-7901 cells) of 0.33 mM. For the same molecule, the “Organs index, Brain” value [3, 6] was 0.68 ± 0.09 g/100 g of body weight, the “Organs index, Heart” value [3, 6] was 0.32 ± 0.02 g/100 g of body weight and the “Organs index, Kidney” value [3, 6] was 0.75 ± 0.07 g/100 g of body weight. For the same molecule, the “Organs index, Liver” value [3, 6] was 3.04 ± 0.26 g/100 g of body weight, the “Organs index, Lung” value [3, 6] was 0.47 ± 0.01 g/100 g of body weight and the “Organs index, Spleen” value [3, 6] was 0.22 ± 0.04 g/100 g of body weight. For the same molecule, the “Organs index, Brain” value [3, 7] was 0.79 ± 0.07 g/100 g of body weight, the “Organs index, Heart” value [3, 7] was 0.32 ± 0.04 g/100 g of body weight and the “Organs index, Kidney” value [3, 7] was 0.75 ± 0.06 g/100 g of body weight. For the same molecule, the “Organs index, Liver” value [3, 7] was 3.05 ± 0.17 g/100 g of body weight, the “Organs index, Lung” value [3, 7] was 0.49 ± 0.03 g/100 g of body weight and the “Organs index, Spleen” value [3, 7] was 0.22 ± 0.02 g/100 g of body weight. For the same molecule, the Abnormal behaviours ([3]; rats, single oral dose 300 mg/kg, first 4 h, n = 3) was “During the first 30 min, all rats became quitter and slightly weaker than the control, and returned to normal within 1 h”, the Abnormal behaviours ([3]; rats, single oral dose 2000 mg/kg, first 4 h, n = 6) was “In the first 30 min, all rats were more active than control, then showed lethargic and dilatoriness, yet returned to normal after 30 min” and the LD50 cut-off ([3]; rats, single oral dose, OECD 423 annex 2c, starting dose 300 mg/kg) was “greater than 2000 mg/kg B.W”.
In the case of `O=Cc1ccc(CO)o1` [5-HMF, 5-hydroxymethylfurfural], the IC50 at 24 h [1] is reported as 9.94 mM, the IC50 at 24 h ([2]; A549 cells) is reported as 7.14 mM and the IC50 at 24 h ([2]; SGC-7901 cells) is reported as 8.42 mM. The Abnormal behaviours ([3]; female, Sprague-Dawley, rat, in vivo, po, 300 mg/kg) was “During the first 30 min, all rats became quitter and slightly weaker than the control, and returned to normal within 1 h”, the Abnormal behaviours ([3]; female, Sprague-Dawley, rat, in vivo, po, 2000 mg/kg) was “Rat numbered 1 emerged convulsions, lethargy, convulsions, and limb weakness during the first 30 min, showed somnolence and decrease of animal heat in the next 30 min; others only behaved a quiet symptom, all rats returned to normal within 1 h” and the LD50 cut-off ([3]; rat, in vivo, po, 300 mg/kg) was “greater than 2000 mg/kg B.W”. The “Organs index, Brain” value ([3]; rat, in vivo, po, 300 mg/kg) was 0.74 ± 0.02 g/100 g of body weight, the “Organs index, Heart” value ([3]; rat, in vivo, po, 300 mg/kg) was 0.35 ± 0.03 g/100 g of body weight and the “Organs index, Kidney” value ([3]; rat, in vivo, po, 300 mg/kg) was 0.75 ± 0.06 g/100 g of body weight. For the same molecule, the “Organs index, Liver” value ([3]; rat, in vivo, po, 300 mg/kg) was 3.06 ± 0.19 g/100 g of body weight, the “Organs index, Lung” value ([3]; rat, in vivo, po, 300 mg/kg) was 0.52 ± 0.02 g/100 g of body weight and the “Organs index, Spleen” value ([3]; rat, in vivo, po, 300 mg/kg) was 0.25 ± 0.01 g/100 g of body weight. For the same molecule, the “Organs index, Brain” value ([3]; rat, in vivo, po, 2000 mg/kg) was 0.74 ± 0.05 g/100 g of body weight, the “Organs index, Heart” value ([3]; rat, in vivo, po, 2000 mg/kg) was 0.33 ± 0.02 g/100 g of body weight and the “Organs index, Kidney” value ([3]; rat, in vivo, po, 2000 mg/kg) was 0.75 ± 0.07 g/100 g of body weight. The “Organs index, Liver” value ([3]; rat, in vivo, po, 2000 mg/kg) was 2.83 ± 0.09 g/100 g of body weight, the “Organs index, Lung” value ([3]; rat, in vivo, po, 2000 mg/kg) was 0.51 ± 0.04 g/100 g of body weight and the “Organs index, Spleen” value ([3]; rat, in vivo, po, 2000 mg/kg) was 0.25 ± 0.06 g/100 g of body weight. For the same molecule, the Mortality ([3]; rats, single oral dose 300 or 2000 mg/kg, 14-day observation) was “none of the rats died”, the Nephrotoxic effects [4] was “mild nephrotoxic effects” and the Cytotoxicity [5] was “none cytotoxic”.
